From publication PMC11013010, “Serendipitous Identification of Azine Anticancer Agents Using a Privileged Scaffold Morphing Strategy” (Molecules, 2024)
In brackets after ≈: the same amount, converted by molar mass. Several values for one entry are separate records, joined by “and”; a condition that tells them apart may be missing. Equal values may be shown once.

What was measured:
[1] = Cytotoxicity assay (CellTiter Glo) on normal fibroblasts; assay type: cell-based, human; details: human, FB789 normal fibroblast cells
Experimental: (§1) Cell-based assays were carried out on the normal human fibroblast FB789 cell line (kindly provided by Elena Dell’Ambra from IRCCS Istituto Dermopatico dell’Immacolata, Rome), on the Huh7 hepatocarcinoma cell line (kindly provided by Istituto Toscano Tumori, Core Research Laboratory, Siena, Italy), on the Caco-2 adenocarcinoma colorectal cell line (ATCC catalog. n. HTB-37), on the suspension H9 cell line (repository code ARP0001, NIBSC Centre for AIDS reagents) and on the adherent TZM-bl cell line (repository code ARP5011, NIBSC Centre for AIDS reagents).
(§2) The FB789 was cultured in Dulbecco’s Modified Eagle Medium (DMEM) and Ham’s F10 in a ratio of 50%, supplemented with 10% FBS, 2 mM L-glutamine, and 10,000 unit/mL penicillin/streptomycin.
(§3) The cytotoxicity of all investigated compounds was assayed in all cells lines as previously described. Briefly, confluent cells were treated with decreasing compound concentrations for 48h. The final DMSO concentration used was never greater than 0.5% v/v. Each experiment was performed in duplicate and repeated in two independent experiments. Cell viability was calculated using the CellTiter Glo 2.0 kit (Promega, Madison, WI, USA) and luminescence values signal obtained from cells treated with serial dilution of the compounds were measured through the GloMax® Discover Multi mode Microplate Reader (Promega) and elaborated with GraphPad PRISM software version 9.0 (La Jolla, San Diego, CA, USA). […] A non-toxic dose of each compound was used as the starting concentration in the antiviral activity assay.

[2] = Cytotoxicity assay (CellTiter Glo) on hepatocarcinoma cells; assay type: cell-based; details: human, Huh7 hepatocarcinoma cells, Huh7 hepatocarcinoma
Experimental: as §1
(§4) High glucose Dulbecco’s Modified Eagle Medium with sodium pyruvate and L-glutamine (DMEM; Euroclone) was used to grow Huh-7 and TZM-bl. Minimum Essential Eagle Medium (EMEM; Euroclone) was used to propagate Caco-2. DMEM and EMEM were supplemented with 10% fetal bovine serum (FBS; Euroclone) and 1% penicillin/streptomycin (Pen/Strep, Euroclone). The growth medium with a lower concentration of FBS (1%) was used for viral propagation, cytotoxic and antiviral experiments in adherent cell lines. […] All cell lines were grown at 37 °C in a 5% CO2 atmosphere in a humidified incubator.
as §3

[3] = system: Huh7 cells; assay: as above; assay type: cell-based; details: ratio CC50 FB789 / CC50 Huh7
Experimental: as §1, §4, §3

[4] = system: SARS-CoV-2; parameters: method as in PMID 36557962; details: half-maximal concentration inhibiting 50% of virus replication; cited from earlier work
[5] = Cytotoxicity assay (CellTiter Glo) on lymphoma cells; details: human
[6] = system: H9 cells; assay: as above; details: ratio CC50 FB789 / CC50 H9
[7] = Cytotoxicity assay (CellTiter Glo) on colon epithelial carcinoma cells; details: human, Caco-2
[8] = system: Caco-2 cells; assay: as above; details: ratio CC50 FB789 / CC50 Caco-2
[9] = system: WNV; assay: WNV antiviral yield reduction assay in Huh7; details: read-out: potency on WNV; flavivirus WNV
[10] = system: DENV; assay: DENV antiviral yield reduction assay in Huh7; details: read-out: potency on DENV; flavivirus DENV
[11] = system: FB789 cells; assay: Cytotoxicity assay (CellTiter Glo) on normal fibroblasts; assay type: cell-based, human; details: pyrimidines and pyridines, read out at 48 h, mean ± SD
Experimental: as §1, §2, §3

[12] = Kinetic aqueous solubility; assay type: physicochemical; details: Milli-Q water, 25 °C, kinetic from dmso stock; for solubility kinetic at 3 h: water, Mill-Q H2O, RT, LOD 0.1 µg/mL
Experimental: For the quantitative analysis, a UV/LC-MS system was used. LC analysis was performed through an Agilent 1260 Infinity HPLC-DAD system (Agilent Technologies, Palo Alto, CA, USA), which constituted of a vacuum solvent degassing unit, a binary high-pressure gradient pump, and a UV detector, that was connected to an Agilent MSD 6130 system (Agilent Technologies, Palo Alto, CA, USA). The Agilent 1260 series mass spectra detection (MSD) single-quadrupole instrument was equipped with the orthogonal spray API-ES (Agilent Technologies, Palo Alto, CA, USA). Nitrogen was used as a nebulizing and drying gas. Chromatographic separation was performed using a Phenomenex Kinetex EVO C18-100 Å (150 × 4.6 mm, 5 μm particle size) at 25 °C and a gradient elution with a binary solution; eluent A was H2O, while eluent B consisted of ACN (both eluents were acidified with FA 0.1% v/v). […] UV detection was monitored at 254 nm. Spectra were acquired over the scan range m/z 100–1500 in positive mode.
DMSO-stock compounds’ solutions were diluted with Mill-Q H2O to a final concentration of 200 μM. The percentage of DMSO never exceeded 2% v/v. Samples were incubated under gentle shaking at 25 °C (RT) conditions for 3 h. The suspensions were filtered using a 0.45 µm nylon filter (Acrodisc, VWR, Radnor, PE, USA), and the amount of solubilized compound was determined with the HPLC-UV-MS method reported above. The quantification of the solubilized compound was made with the appropriate calibration curve realized with stock solutions in DMSO (0.1–100 µg/mL). The limit of detection (LOD) was quantified at 0.1 µg/mL.

[13] = Parallel artificial membrane permeability assay (PAMPA); assay type: in vitro ADME; details: GI, pH 7.4, 5 h, RT
Experimental: To evaluate the apparent permeability of tested compounds, a DMSO stock solution [1 mM] of each derivative was prepared and then diluted 1:1 v/v with phosphate buffer (PBS 25 mM, pH 7.4) in order to make the donor solutions. According to the protocol already published, the gastrointestinal (GI) phospholipidic bilayer was mimed through adding a 1% w/v dodecane solution of phosphatidylcholine (PC). The sandwich plates were assembled and incubated for 5 h at RT. At the end time point, the amount of compound passed through the phospholipid bilayer was measured using HPLC-UV/MS. Finally, apparent permeability (Papp) and membrane retention (MR%) were calculated as previously described.

[14] = Metabolic stability assay with human liver microsomes; assay type: in vitro ADME; details: 1 h, 37 °C, 50 µM
Experimental: A DMSO solution of selected compounds was incubated in the presence of phosphate buffer (25 mM, pH 7.4), human liver microsomal protein (200 µg/mL), and an NADPH regenerating system in MgCl2 (48 mM) at a final concentration of 50 µM. The metabolic reactions were conducted for 1 h under shaking at 37 °C and then stopped by adding cold acetonitrile (ACN). Centrifuging the mixtures at 5000 rpm, the supernatant was separated, dried under nitrogen flow, and finally suspended in methanol (MeOH). The amount of the parent drug and the metabolites were determined as previously described.

[15] = Plasma stability assay; assay type: in vitro ADME; details: human plasma, 24 h, 37 °C; % of Time 0
Experimental: A DMSO solution of each compound was incubated at a final concentration of 100 µM at 37 °C under shaking with HEPES buffer (25 mM, 140 mM NaCl, pH 7.4) and human plasma. At time 0 and after 24 h, samples were collected from the reaction mixtures and treated with cold ACN. After centrifugation at 5000 rpm for 10 min, the supernatant was collected, and the amount of unmodified compound was determined using the HLPC-UV/MS method described above. Modified compounds were calculated using time zero as 100% of the unmodified compound.

[16] = triazines 1-9, read-out 48 h, Cell-Titer Glo
[17] = pyrimidines and pyridines, read out at 48 h, mean ± SD

Row | SMILES | CC50 at 48 h [1, 16] | CC50 at 48 h ([2]; triazines 1-9, read-out 48 h) | TSI Huh7 ([3]; triazines 1-9) | CC50 at 48 h [5] | TSI H9 ([6]; triazines 1-9) | CC50 at 48 h [7] | TSI Caco-2 ([8]; triazines 1-9) | CC50 at 48 h [1, 17] | CC50 FB789 [11] | CC50 at 48 h [2, 17] | TSI Huh7 ([3]; pyrimidines and pyridines) | solubility kinetic at 3 h [12] | Papp at 5 h, 0.5 mM [13] | Metabolic Stability [14] | Plasmatic Stability [15] | TSI H9 ([6]; pyrimidines and pyridines) | TSI Caco-2 ([8]; pyrimidines and pyridines) | also measured
1 | Oc1ccccc1/C=N/Nc1nc(N2CCOCC2)nc(N2CCOCC2)n1 [Compound 1] | 30 ± 6 µM | > 100 µM | <0.3 | > 100 µM | <0.3 | > 400 µM | <0.1 | – | – | – | – | – | – | – | – | – | – | IC50 [4]: 12.1 µM
2 | Oc1ccccc1/C=N/Nc1nc(Nc2ccc(F)cc2)nc(N2CCOCC2)n1 [Compound 4] | 11 ± 3 µM | 9 ± 1 µM | 1.2 | 2 ± 1 µM | 5.5 | 3 ± 1 µM | 3.7 | – | – | – | – | – | – | – | – | – | – | IC50 [9]: 1.1 µM; IC50 [10]: 2 µM
3 | Cc1cccc(/C=N/Nc2cc(Nc3ccc(F)cc3)nc(Nc3ccc(F)cc3)c2)c1 [Compound 33b] | – | – | – | 23 ± 7 µM | – | 11 ± 9 µM | – | 390 ± 30 µM | very low cytotoxic effect | 21 ± 12 µM | 18.6 | < 0.1 µg/mL | 1.38 ± 0.6 ×10⁻⁶ cm/s | >99.9% | 81.01 ± 3.28% | 17.0 | 35.5 | MR (membrane retention) [13]: 46.84% and 46.84 ± 4.99%
4 | Cc1cccc(/C=N/Nc2cc(Nc3ccc(F)cc3)nc(N3CCOCC3)c2)c1 [Compound 38b] | – | – | – | 18 ± 4 µM | – | 8 ± 3 µM | – | 90 ± 9 µM | very low cytotoxic effect | 9 ± 6 µM | 10.0 | 0.54 µg/mL (≈ 1.33 µM) | 6.35 ± 0.67 ×10⁻⁶ cm/s | 97.93 ± 0.46% | 87.13 ± 0.48% | 5.0 | 11.3 | solubility at 3 h ([12]; log of kinetic water solubility, read-out: LogS (converted)): 1.35 µM (≈ 0.547 µg/mL)
